Reference: paper PMC6130628, “Some pharmacokinetic parameters of salvianolic acid A following single-dose oral administration to rats” (Pharmaceutical Biology, 2018)
“Also recorded” adds a separate entry of the source. Where two headings read alike, the source gives them in different places.

Columns and labels:
[1] = Bidirectional transport experiments in the Caco-2 cell culture model; assay type: in vitro ADME; conditions: human; for Papp A→B at 180 min: read-out: Papp Apical → basolateral; for Papp B→A at 180 min: read-out: Papp Basolateral → apical
Procedure: (§1) Caco-2 cells (passage number 34–36, American Type Culture Collection, Manassas, VA) were cultured at 37 °C in an atmosphere of 5% CO2 and 90% relative humidity in Dulbecco’s modified Eagle’s medium supplemented with 10% fetal bovine serum, 1% penicillin–streptomycin, 1% HEPES, 1% sodium pyruvate and 1% minimal essential medium nonessential amino acids. After harvesting at 90% confluence, the cells were seeded on to 0.4 μm polycarbonate membrane transwell inserts (12 mm diameter) at a density of 1.5 × 10^5 cells/cm^2. The culture media was changed every other day during the first 7 days after seeding and once a day thereafter. Cell monolayers were ready for experiments from 20 to 24 days postseeding.
(§2) Experiments in triplicate were performed in HBSS (pH =7.4).To ensure the stability of Sal A in HBSS, VC was applied in this study as stabilizer. The monolayers were washed three times with prewarmed HBSS (37 °C) before use. The integrity of the Caco-2 monolayers was monitored by measuring the transepithelial electrical resistance, and only monolayers with values ≥400 Ω/cm^2 were used. The monolayers were incubated with HBSS at 37 °C for 30 min, and then the incubation medium was aspirated. Afterwards, bidirectional transport experiments were conducted. Sal A solution of appropriate concentrations in HBSS (containing VC 1 0^−4 mol/L) were loaded to the donor compartments and the blank HBSS (containing VC 1 0^−4 mol/L) was added to the receiver compartments. Seven sequential samples (50 μL) were collected at different times (0, 30, 60, 90, 120, 150, 180 min) from the receiver side. The same volume of receiver medium was replaced after each sampling. The collected samples were added into tubes with 40 μL MeOH–H2O (50:50, v/v, containing VC 100 μg/mL). Then, 10 μL of the IS spiking solution (butyl paraben, 1 μg/mL) was added. After centrifugation at 13,400 rpm for 5 min, 20 μL of the supernatant was injected to the LC–MS system.
(§3) Influence of the stabilizer on the transport of Sal A has also been tested under the condition of different concentrations of VC. The samples were collected, treated and analyzed according to the same procedure.
(§4) The apparent permeability coefficient (Papp) was calculated according to the following equation: Papp=(ΔQ/Δt)/(A×C0) where ΔQ/Δt is the linear appearance rate of the tested compound in the receiver compartments, A is the surface area of the cell monolayer and C0 is the initial concentration of the tested compound in the donor side.

Caco-2 cell monolayer = assay: as above; assay type: in vitro ADME
Procedure: as §1, §2, §3, §4

[2] = Tissue distribution of Sal A in rats; assay type: in vivo, Sprague-Dawley rats; conditions: single oral dose 5 mg/kg
Procedure: Twenty-four healthy, intact Sprague–Dawley rats (male/female, 1/1, 185–215 g, Certificate No. SCXK 2006-0009) were purchased from Vital River Laboratories (Beijing, China). The rats were maintained in air-conditioned animal quarters with alternating 12 h light/dark cycles at a room temperature of 22 ± 2 °C and a relative humidity of 50 ± 10%. The rodents were given a commercial rat chow and water ad libitum. The experiment started after acclimation to the facilities for 7 days. The animal protocols used in this study followed guidelines set forth by the Ethic Committee of Laboratory Animals of the Affiliated Hospital of Qingdao University (QYFYKYLL 2013-2-4-01).
Rats were fasted overnight (∼12 h) and had free access to water throughout the experimental period. In our study, rats were treated as followed: 18 rats were divided into 3 groups randomly (6 rats/group, male/female =1/1) and were all given a single oral dose of 5 mg/kg. The animals were sacrificed 10 min, 1 and 2 h postdosing and stomach, small intestine, heart, liver, spleen, lung, kidney and brain were harvested for drug analysis. The remaining six rats were given normal saline as control. Tissue samples were frozen and maintained at –80 °C immediately until analysis.
Tissues were homogenized in normal saline (2 mL/g, except 6 mL/g for stomach) using a FLUKO F6/10 for 1–2 min over an ice bath. The aliquots of 200 μL homogenized tissues were used for the LC–MS analysis. The remaining steps were the same as sample preparation in “Pharmacokinetic study in vivo”.

[3] = parameters: method as in Sun et al. [2013]; conditions: Beagle dogs, oral, pure form; ref Sun et al. [2013]; cited from earlier work
[4] = parameters: method as in Lai et al. [2011]; conditions: rats, salvianolic acid extract 800 mg/kg oral (Sal A 5.71% of mixture); ref Lai et al. [2011]; cited from earlier work
[5] = cited from earlier work
[6] = Caco-2, pH 7.4, Sal A 10^–4/3 mol/L, HBSS pH 7.4, VC 10^−4 mol/L
[7] = Caco-2, pH 7.4, Sal A 10^–4/9 mol/L, HBSS pH 7.4, VC 10^–4 mol/L
[8] = Caco-2, pH 7.4, Sal A 10^–4/9 mol/L, VC 10^–3/3 mol/L
[9] = Caco-2, pH 7.4, Sal A 10^–4/9 mol/L, VC 10^–3 mol/L
[10] = Caco-2, pH 7.4, Sal A 10^–4/27 mol/L, HBSS pH 7.4, VC 10^−4 mol/L

Papp A→B at 180 min [1, 6]: 0.156 ± 0.0412 ×10⁻⁶ cm/s
Papp B→A at 180 min [1, 6]: 0.508 ± 0.0118 ×10⁻⁶ cm/s
Papp A→B at 180 min [1, 7]: 0.152 ± 0.0055 ×10⁻⁶ cm/s
Papp B→A at 180 min [1, 7]: 0.605 ± 0.0175 ×10⁻⁶ cm/s
Papp A→B at 180 min [1, 8]: 0.155 ± 0.003 ×10⁻⁶ cm/s
Papp B→A at 180 min [1, 8]: 0.507 ± 0.087 ×10⁻⁶ cm/s
Papp A→B at 180 min [1, 9]: 0.153 ± 0.0028 ×10⁻⁶ cm/s
Papp B→A at 180 min [1, 9]: 0.478 ± 0.0453 ×10⁻⁶ cm/s
Papp A→B at 180 min [1, 10]: 0.641 ± 0.0576 ×10⁻⁶ cm/s
Papp B→A at 180 min [1, 10]: 0.987 ± 0.121 ×10⁻⁶ cm/s
efflux ratio at 180 min ([1]; pH 7.4, Caco-2 monolayer, read-out: ratio of PB–A to PA–B (Papp basolateral to apical / apical to basolateral)): ~3
influence of VC concentration on the amount of Sal A transported (Caco-2 cell monolayer; different VC concentrations, p> 0.05): no significant difference
membrane permeability (classification by Papp) (Caco-2 cell monolayer; poorly absorbed: Papp <1 × 10^−6 cm/s): poor membrane permeability
presence in brain homogenate [2]: detected in brain homogenate
time to distribute into tissues [2]: ≤ 10 min
Compound: O=C(/C=C/c1ccc(O)c(O)c1/C=C/c1ccc(O)c(O)c1)O[C@H](Cc1ccc(O)c(O)c1)C(=O)O [Sal A, Salvianolic acid A]
tissue with highest concentration ([2]; 10 min, 1 and 2 h, 5 mg/kg): stomach followed by small intestine and liver; also recorded: highest tissue concentration was found in stomach
absolute bioavailability [3]: 1.25%
absolute bioavailability of Sal A [4]: 2.5%
stability in intestinal alkaline environment ([5]; alkaline environment, ref Liu et al. [2011]): instability
stability in distilled water ([5]; distilled water, room temperature, ref Xu et al. [2008]): instable
